# Laboratory results published in patent publication US10894787B2, “Modulators of the GPR119 receptor and the treatment of disorders related thereto” (Arena Pharmaceuticals, Inc., priority 2010, dated 2021).
# Read-outs that look alike come from different tables or passages of the source.
# Tests used:
# [1] = combined administration with a DPP-IV inhibitor, cited from earlier work
# dog liver microsomes = test: In vitro metabolism of Compound 1 in dog liver microsomes; format: in vitro ADME; settings: Compound 1 incubated with 0.25 mg/mL microsomal protein, pH 7.4
# Description: (§1) Compound 1 was incubated with mouse, rat, dog, monkey and human liver microsomal protein (0.25 mg/mL final concentration) in 100 mM potassium phosphate buffer containing 3 mM MgCl2 and 1 mM EDTA (pH 7.4) for over a period of time in the presence or absence of (3-NADPH. The samples were then processed and the supernatant was analyzed by LC-MS/MS for the identification and quantification of the metabolites.
# [2] = In vivo metabolism of Compound 1: metabolites in dog plasma samples (LC/MS/MS); settings: dog plasma after dosing Compound 1; under the analytical conditions used
# Description: (§2) Metabolites of Compound 1 were identified in plasma samples collected from different pharmacokinetic studies in various species.
# (§3) Four species, mouse, rat, dog and monkey were dosed with Compound 1, and plasma samples were collected at predetermined time points from each of the species according to specific study protocols. The samples were then processed and subjected to the LC/MS/MS analysis for the identification and quantification of the metabolites. Three metabolites, designated M1 (Compound 2), M2 (Compound 3), and M3 were identified in plasma samples from various species. The M1 metabolite was identified as a mono-N-demethylation of Compound 1, and the M2 metabolite was a di-N-demethylation product of Compound 1. The third metabolite M3 (i.e., 3-fluoro-4-(5-fluoro-6-(4-(3-(2-fluoropropan-2-yl)-1,2,4-oxadiazol-5-yl)piperidin-1-yl)pyrimidin-4-ylamino)benzoic acid, see below) was determined as a carboxylic acid of Compound 1.
# GPR119 receptor = target: T1, GPR119 receptor (Homo sapiens, UniProt Q8TDV5); test: HTRF assay for direct cAMP measurement in CHO-K1 cells stably expressing the GPR119 receptor; format: cell-based; settings: for EC50: CHO-K1 cells stably expressing GPR119; for Pharmacological activity of metabolites (HTRF assay): metabolites of Compound 1
# T1 construct: expressed in transfected cells
# T1 sequence (Q8TDV5 2-335 limits assumed): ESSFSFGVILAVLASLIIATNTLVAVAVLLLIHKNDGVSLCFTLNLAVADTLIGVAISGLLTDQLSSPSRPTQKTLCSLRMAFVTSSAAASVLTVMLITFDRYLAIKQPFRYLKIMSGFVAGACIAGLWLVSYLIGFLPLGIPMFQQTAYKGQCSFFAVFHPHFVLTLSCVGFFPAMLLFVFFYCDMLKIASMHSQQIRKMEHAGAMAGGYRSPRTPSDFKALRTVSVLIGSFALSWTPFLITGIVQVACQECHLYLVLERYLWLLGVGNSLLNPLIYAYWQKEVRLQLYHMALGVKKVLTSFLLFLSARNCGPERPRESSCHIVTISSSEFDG
# Description: The GPR119 agonist, Compound 1, was evaluated in an HTRF® cAMP detection assay according to the manufacturer's instructions (Cisbio, cAMP Dynamic 2 Assay Kit; #62AM4PEJ) using CHO-K1 cells stably expressing the GPR119 receptor. Briefly, CHO-K1 cells were transduced with a lentiviral vector encoding the nucleotide sequence of GPR119 (NCBI mRNA and protein reference sequences: NM_178471.2 & NP_848566, (GPR119 has also been referred to as Glucose-Dependent Insulinotropic Receptor (GDIR)). The N-terminus of the GPR119 nucleotide sequence was modified to replace the first, methionine-coding codon with a nucleotide sequence coding for a standard, nine amino acid, hemagglutinin tag. Following transduction, cells expressing the GPR119 receptor were isolated and a single clone was isolated following standard dilution-cloning procedures. On the day of the assay, cultured CHO-GPR119 cells were harvested, suspended in assay buffer and plated into 384-well assay plates (PerkinElmer Proxiplate #6008280) at a density of 2,000 cells per well. A cAMP standard curve was included on each plate. Test compounds were solubilized in DMSO, serially diluted in DMSO and then diluted in assay buffer before adding to the cells. Test compounds were evaluated in triplicate, using 10-point, 5-fold serial dilutions starting at 10 μM. The final DMSO concentration in the assay was 0.5%. Compounds and cells were incubated for 1 h at room temperature and then detection reagents were added to each well (cAMP-D2 in cell lysis buffer, followed by europium cryptate-labeled anti-cAMP antibody). Plates were then incubated at room temperature for 1 h prior to reading. Time-resolved fluorescence measurements were collected on PerkinElmer Envision™ or BMG Pherastar™ microplate readers. The compound N-(2-fluoro-4-(methylsulfonyl)phenyl)-6-(4-(3-isopropyl-1,2,4-oxadiazol-5-yl)piperidin-1-yl)-5-nitropyrimidin-4-amine was used as a positive control in each runset while assay buffer containing 0.5% DMSO was used as the negative control.
# liver microsomes = test: In vitro metabolism of Compound 1 in liver microsomes from various species; format: in vitro ADME, mouse, rat, dog, monkey and human; settings: Compound 1 incubated with 0.25 mg/mL microsomal protein, pH 7.4; relative to M2 and M3
# Description: as §1
# [3] = In vivo metabolism of Compound 1: metabolites in plasma samples from various species (LC/MS/MS); set-up: species or system mouse, rat, dog and monkey; settings: all species, after dosing Compound 1
# Description: as §2, §3
# [4] = human studies; infusion; over 24 hours; cited from earlier work
# [5] = 1 h incubation at room temperature, read-out: EC50, HTRF cAMP assay
compound,measurement,setting,value
"CC(C)c1noc(C2CCN(c3ncnc(Nc4ccc(S(C)(=O)=O)cc4F)c3[N+](=O)[O-])CC2)n1 [Compound B111, (2-Fluoro-4-methanesulfonyl-phenyl)-{6-[4-(3-isopropyl-[1,2,4]oxadiazol-5-yl)-piperidin-1-yl]-5-nitro-pyrimidin-4-yl}-amine]",Plasma GLP-1 levels,[1]; greater than either agent alone,acutely increased plasma GLP-1 levels
same,Glucose tolerance,[1]; significantly greater degree than either agent alone,improved glucose tolerance
"CC(C)(F)c1noc(C2CCN(c3ncnc(Nc4ccc(C(N)=O)cc4F)c3F)CC2)n1 [Compound 3, 3-fluoro-4-(5-fluoro-6-(4-(3-(2-fluoropropan-2-yl)-1,2,4-oxadiazol-5-yl)piperidin-1-yl)pyrimidin-4-ylamino)benzamide]",Formation of metabolite in dog liver microsomes,dog liver microsomes,negligible
same,Metabolite observed in dog plasma samples,[2],not observed
same,EC50,GPR119 receptor; [5],28.2 nM
same,Pharmacological activity of metabolites (HTRF assay),GPR119 receptor,pharmacologically active
"CNC(=O)c1ccc(Nc2ncnc(N3CCC(c4nc(C(C)(C)F)no4)CC3)c2F)c(F)c1 [Compound 2, 3-fluoro-4-(5-fluoro-6-(4-(3-(2-fluoropropan-2-yl)-1,2,4-oxadiazol-5-yl)piperidin-1-yl)pyrimidin-4-ylamino)-N-methylbenzamide]",Rate of formation of metabolite in liver microsomal incubation,liver microsomes,highest
same,EC50,GPR119 receptor; [5],27 nM
same,Pharmacological activity of metabolites (HTRF assay),GPR119 receptor,pharmacologically active
"CC(C)(F)c1noc(C2CCN(c3ncnc(Nc4ccc(C(=O)O)cc4F)c3F)CC2)n1 [Compound M3, 3-fluoro-4-(5-fluoro-6-(4-(3-(2-fluoropropan-2-yl)-1,2,4-oxadiazol-5-yl)piperidin-1-yl)pyrimidin-4-ylamino)benzoic acid]",Circulating metabolite status,[3],major circulating metabolite
same,EC50,"GPR119 receptor; read-out: EC50, HTRF assay",100000 nM
same,Pharmacological activity of metabolites (HTRF assay),GPR119 receptor,substantially little activity
PYY3-36: generated from PYY1-36 by cleavage of the N-terminal Tyr and Pro residues by DPP-IV; Y2R agonist,Reduction of food intake,[4],33%
